# Assay results taken from PMC12123601, “Light-Induced, Lysine-Targeting Irreversible Covalent Inhibition of the Human Oxygen Sensing Hydroxylase Factor Inhibiting HIF (FIH)” (Journal of the American Chemical Society, 2025).
# Key:
# [1] = tested on: EGLN3 mRNA level in Hep3B cells; assay: qRT-PCR of FIH-dependent HIF target gene EGLN3 in Hep3B cells; type: cell-based
# Method: 5 […] sustainably engages with FIH and regulates the expression of FIH-dependent HIF target gene EGLN3 in Hep3B cells. (A) The CETSA assay was carried out with Hep3B cells grown in the presence of NBA-ZG-2291 (50 μM) for 12–48 h after 30 min of light activation (365 nm, 16 W). The intensity of the bands for grayscale analysis was referenced to the starting temperature (37 °C). α-Actinin was the sample loading control. n = 2; mean ± SD. […] (E) Correlation heatmap of the NBA-ZG-2291-treated group and the siFIH group by RNA-sequencing analysis. […] The relative fold change with respect to DMSO treated sample is shown (with normalization to HPRT gene levels). Mean ± SEM; n = 3. (G) TG level of NBA-ZG-2291-treated 3T3-L1-derived adipocytes. Mean ± SEM; n = 3. (H) Representative Oil Red O-stained images of the control, ZG-2291-treated, and NBA-ZG-2291-treated 3T3-L1-derived adipocytes. Scale Bar, 30 μm. P values were analyzed by two-way ANOVA comparing with the vehicle/control group (*, P < 0.05; **, P < 0.01; ***, P < 0.001, ****, P < 0.0001). See Methods (Quantitative PCR Analysis of Gene Expression) for assay details. TEXT PRINTED IN THE PICTURE: (A) no label printed: FIH: ΔTm (°C): 8.87 (Incubation time: 12 h); FIH: ΔTm (°C): 9.28 (Incubation time: 24 h); FIH: ΔTm (°C): 8.86 (Incubation time: 48 h); α-actinin: ΔTm (°C): 0.30 (Incubation time: 12 h); α-actinin: ΔTm (°C): -0.03 (Incubation time: 24 h); α-actinin: ΔTm (°C): -0.45 (Incubation time: 48 h) DOUBTS OF THE COPYIST ABOUT THIS PICTURE: Panel A: the picture prints no substance label with the ΔTm tables, so the label is left empty
# The Egl-9 family hypoxia-inducible factor 3 gene (EGLN3, PHD3) is a HIF target gene, expression of which is negatively regulated by FIH catalysis, , potentially in a context-dependent manner. We therefore investigated the effect of the light-induced covalent inhibitor NBA-ZG-2291 on EGLN3 expression levels in Hep3B cells using ZG-2291 as a positive inhibition control. […] At a concentration of 10 μM, NBA-ZG-2291 increased EGLN3 expression by ∼2.5-fold with irradiation.
# We also compared the time-dependent regulation of NBA-ZG-2291 on the HIF pathway with that of ZG-2291. […] This may result from the limited action time of the reversible inhibitor, perhaps due to its metabolism. The overall results provide strong evidence that the light-induced, lysine-targeting irreversible covalent inhibitor NBA-ZG-2291 can effectively and sustainably engage FIH, leading to the upregulation of FIH-dependent HIF target gene expression.
# FIH = FIH (Homo sapiens, UniProt Q9NWT6); assay: O-phenylenediamine (OPD) 2OG derivatization turnover assay (remaining 2OG in FIH hydroxylation system); type: biochemical; set-up: Concentration of remaining 2OG: unit: µM
# FIH, sequence (Q9NWT6 whole entry): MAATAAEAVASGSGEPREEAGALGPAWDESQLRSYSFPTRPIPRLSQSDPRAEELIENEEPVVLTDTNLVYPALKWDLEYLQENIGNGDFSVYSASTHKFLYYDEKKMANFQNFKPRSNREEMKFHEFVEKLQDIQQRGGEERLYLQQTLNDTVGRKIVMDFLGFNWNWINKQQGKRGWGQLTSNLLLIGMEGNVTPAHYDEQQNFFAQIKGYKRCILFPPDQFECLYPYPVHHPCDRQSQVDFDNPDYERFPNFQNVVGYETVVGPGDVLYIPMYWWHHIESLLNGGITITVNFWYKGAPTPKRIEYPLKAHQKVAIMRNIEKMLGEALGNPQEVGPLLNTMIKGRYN
# Method: To explore whether the covalent inhibitor can effectively and sustainably prevent the hydroxylation process catalyzed by FIH, the inhibitory activities against FIH were evaluated using the fluorescent O-phenylenediamine (OPD) 2OG derivatization turnover assay (Figure S9).
# Figure S9. Schematic of the O-phenylenediamine (OPD) fluorescent derivative assay6. The assay monitors depletion of 2OG.
# (1 picture or pasted object on this page, not shown here) […]
# pET28a vectors encoding for full-length FIH with an N-terminal His6 tag or for FIH (K106A) with an N-terminal His6 tag were purchased from Nanjing Zoonbio Biotechnology. Both the FIHWT and FIHK106A protein were expressed from the respective plasmid in Escherichia coli BL21 at 20 °C for 16 h. E. coli cells were lysed and the lysate were clarified by centrifugation. His6-tagged FIHWT or FIHK106A was purified on a HisTrap affinity column (GE Healthcare) by elution with an imidazole gradient. The final purified proteins were stored in PBS buffer. […]
# Ki = I50 / [1 + ([L]50 + [P]0)/Kd] […]
# 3.2 O-Phenylenediamine (OPD) fluorescent derivative assay
# Assays were carried out by mixing 1 mM DTT, 0.6 mg/mL of catalase, 200 μM 2-OG, 50 mM Hepes, 200 μM HIF-1α (788-807), and inhibitors at pH 7.0 to a final volume of 44 μL and incubated at 37 °C for 5 min. At the same time, FIH enzyme and iron (prepared as 200 mM stock in 20 mM HCl and diluted with water) were mixed at room temperature for 3 min. […] The reaction was stopped by the addition of 100 μL of 0.5 M HCl. After adding 50 μL of 10 mg/mL OPD in 0.5 M HCl and heating at 95 °C for 10 min, the derivatization was achieved. Then, 50 μL of the mixture centrifugated for 5 min was made basic by adding 30 μL of 1.25 M NaOH, and then fluorescence was detected by SPARK Multi-Mode Microplate Reader (Tecan). […]
# Crystals were cryo -protected using mother liquor supplemented with 25%v/v glycerol before manual loop cryo -cooling in liquid N2.
# Data for ligand -bound protein complexes were from single crystals at 100 K using Diamond Light Source (UK) beamlines. The FIH crystal structures were determined by molecular replacement (MR) using the AutoMR (PHASER) subroutine in PHENIX (version 1.18.2) based on the PDB ID: 1H2K crystal structure .
smiles,measurement,setting,value
"O=C(O)CNC(=O)c1ncc(-c2cc(-c3cccc(Cl)c3)no2)cc1O [ZG-2291, reference compound]",Effect of irradiation on EGLN3 expression,[1],not affected by irradiation
same,Upregulation of EGLN3 mRNA level,"[1]; 20 μM, absence of irradiation",~2.2 fold
same,EGLN3 mRNA levels versus DMSO,[1]; after 16 h treatment,no significant difference compared to the negative control
same,Concentration of remaining 2OG,"FIH; inhibitor 0.14 μM, incubation 0 min, 200 μM 2-OG at start",200.0
same,Concentration of remaining 2OG,"FIH; inhibitor 0.14 μM, incubation 15 min",182.9
same,Concentration of remaining 2OG,"FIH; inhibitor 0.14 μM, incubation 30 min",173.3
same,Concentration of remaining 2OG,"FIH; inhibitor 0.14 μM, incubation 1 h",163.0
same,Concentration of remaining 2OG,"FIH; inhibitor 0.14 μM, incubation 4 h",140.5
same,Concentration of remaining 2OG,"FIH; inhibitor 0.41 μM, incubation 0 min, 200 μM 2-OG at start",200.0
same,Concentration of remaining 2OG,"FIH; inhibitor 0.41 μM, incubation 15 min",184.2
same,Concentration of remaining 2OG,"FIH; inhibitor 0.41 μM, incubation 30 min",176.4
same,Concentration of remaining 2OG,"FIH; inhibitor 0.41 μM, incubation 1 h",162.3
same,Concentration of remaining 2OG,"FIH; inhibitor 0.41 μM, incubation 4 h",153.7
same,Concentration of remaining 2OG,"FIH; inhibitor 1.23 μM, incubation 0 min, 200 μM 2-OG at start",200.0
same,Concentration of remaining 2OG,"FIH; inhibitor 1.23 μM, incubation 15 min",190.8
same,Concentration of remaining 2OG,"FIH; inhibitor 1.23 μM, incubation 30 min",184.4
same,Concentration of remaining 2OG,"FIH; inhibitor 1.23 μM, incubation 1 h",172.8
same,Concentration of remaining 2OG,"FIH; inhibitor 1.23 μM, incubation 4 h",159.4
same,Concentration of remaining 2OG,"FIH; inhibitor 3.70 μM, incubation 0 min, 200 μM 2-OG at start",200.0
same,Concentration of remaining 2OG,"FIH; inhibitor 3.70 μM, incubation 15 min",192.8
same,Concentration of remaining 2OG,"FIH; inhibitor 3.70 μM, incubation 30 min",190.8
same,Concentration of remaining 2OG,"FIH; inhibitor 3.70 μM, incubation 1 h",181.0
same,Concentration of remaining 2OG,"FIH; inhibitor 3.70 μM, incubation 4 h",167.9
same,Concentration of remaining 2OG,"FIH; inhibitor 11.1 μM, incubation 0 min, 200 μM 2-OG at start",200.0
same,Concentration of remaining 2OG,"FIH; inhibitor 11.1 μM, incubation 15 min",195.1
same,Concentration of remaining 2OG,"FIH; inhibitor 11.1 μM, incubation 30 min",194.6
same,Concentration of remaining 2OG,"FIH; inhibitor 11.1 μM, incubation 1 h",184.1
same,Concentration of remaining 2OG,"FIH; inhibitor 11.1 μM, incubation 4 h",175.9
same,Concentration of remaining 2OG,"FIH; inhibitor 33.3 μM, incubation 0 min, 200 μM 2-OG at start",200.0
same,Concentration of remaining 2OG,"FIH; inhibitor 33.3 μM, incubation 15 min",195.6
same,Concentration of remaining 2OG,"FIH; inhibitor 33.3 μM, incubation 30 min",195.3
same,Concentration of remaining 2OG,"FIH; inhibitor 33.3 μM, incubation 1 h",189.4
same,Concentration of remaining 2OG,"FIH; inhibitor 33.3 μM, incubation 4 h",181.4
same,Concentration of remaining 2OG,"FIH; inhibitor 100 μM, incubation 0 min, 200 μM 2-OG at start",200.0
same,Concentration of remaining 2OG,"FIH; inhibitor 100 μM, incubation 15 min",199.4
same,Concentration of remaining 2OG,"FIH; inhibitor 100 μM, incubation 30 min",197.3
same,Concentration of remaining 2OG,"FIH; inhibitor 100 μM, incubation 1 h",193.2
same,Concentration of remaining 2OG,"FIH; inhibitor 100 μM, incubation 4 h",186.6
same,Concentration of remaining 2OG,"FIH; inhibitor 300 μM, incubation 0 min, 200 μM 2-OG at start",200.0
same,Concentration of remaining 2OG,"FIH; inhibitor 300 μM, incubation 15 min",200.0
same,Concentration of remaining 2OG,"FIH; inhibitor 300 μM, incubation 30 min",199.1
same,Concentration of remaining 2OG,"FIH; inhibitor 300 μM, incubation 1 h",196.6
same,Concentration of remaining 2OG,"FIH; inhibitor 300 μM, incubation 4 h",193.3
